Results: US10076519B2 (CYTOKINETICS, INC., priority 2010, dated 2018)

System: rabbit skeletal myofibrils (fast skeletal myofibrils)
Test: Activation of fast skeletal myofibrils (PUMA assay, PK/LDH-coupled ATPase at pCa25)
Type: biochemical
How it was run: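 ATPase activity of Triton-washed rabbit skeletal myofibrils, roughly 90% fast fibres, tracked by NADH loss at 340 nm through a PK/LDH-coupled ADP-regenerating system. Calcium set to 25% of maximal activity (pCa25), in PIPES 12 mM pH 6.8 with 2 mM MgCl2 and 1 mM DTT; AC1.4 reported.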

[1] = median AC1.4 reported as class, procedure of Example 39
[2] = median AC1.4 class, procedure of Example 39

Structure (SMILES)	Mean AC1.4 [1]	Mean AC1.4 [2]	other results
O=C(NCc1cccnc1)c1ccc(NCC2(c3ncccc3F)CCC2)nn1 [[6-({[(3-fluoro(2-pyridyl))cyclobutyl]methyl}ami-no)pyridazin-3-yl]-N-(3-pyridylmethyl)carboxamide]	C (C=10-20 uM)	–	–
O=C(NCc1ccncc1)c1ccc(NCC2(c3ncccc3F)CCC2)nn1 [[6-({[(3-fluoro(2-pyridyl))cyclobutyl]methyl}ami-no)pyridazin-3-yl]-N-(4-pyridylmethyl)carboxamide]	D (D=>20 uM)	–	–
O=C(NCc1ccn[nH]1)c1ccc(NCC2(c3ncccc3F)CCC2)nn1 [[6-({[(3-fluoro(2-pyridyl))cyclobutyl]methyl}ami-no)pyridazin-3-yl]-N-(pyrazol-5-ylmethyl)carboxamide]	D (D=>20 uM)	–	–
Cn1ccc(CNC(=O)c2ccc(NCC3(c4ncccc4F)CCC3)nn2)n1 [[6-({[(3-fluoro(2-pyridyl))cyclobutyl]methyl}ami-no)pyridazin-3-yl]-N-[(1-methylpyrazol-3-yl)methyl]carboxamide]	D (D=>20 uM)	–	–
Cn1nccc1CNC(=O)c1ccc(NCC2(c3ncccc3F)CCC2)nn1 [[6-({[(3-fluoro(2-pyridyl))cyclobutyl]methyl}ami-no)pyridazin-3-yl]-N-[(1-methylpyrazol-5-yl)methyl]carboxamide]	D (D=>20 uM)	–	–
O=C1CCC(CNC(=O)c2ccc(NCC3(c4ncccc4F)CCC3)nn2)N1 (stereo not shown) [[6-({[(3-fluoro(2-pyridyl))cyclobutyl]methyl}ami-no)pyridazin-3-yl]-N-[(5-oxopyrrolidin-2-yl)methyl]carboxamide]	D (D=>20 uM)	–	–
O=C(Nc1ncc[nH]1)c1ccc(NCC2(c3ncccc3F)CCC2)nn1 [[6-({[(3-fluoro(2-pyridyl))cyclobutyl]methyl}ami-no)pyridazin-3-yl]-N-imidazol-2-ylcarboxamide]	C (C=10-20 uM)	–	–
O=C(Nc1ccon1)c1ccc(NCC2(c3ncccc3F)CCC2)nn1 [[6-({[(3-fluoro(2-pyridyl))cyclobutyl]methyl}ami-no)pyridazin-3-yl]-N-isoxazol-3-ylcarboxamide]	B (B=1-10 uM)	–	–
CN(Cc1nccs1)C(=O)c1ccc(NCC2(c3ncccc3F)CCC2)nn1 [[6-({[(3-fluoro(2-pyridyl))cyclobutyl]methyl}ami-no)pyridazin-3-yl]-N-methyl-N-(1,3-thiazol-2-ylmethyl)carboxamide]	D (D=>20 uM)	–	–
CNC(=O)c1ccc(NCC2(c3ncccc3F)CCC2)nn1 [[6-({[(3-fluoro(2-pyridyl))cyclobutyl]methyl}ami-no)pyridazin-3-yl]-N-methylcarboxamide]	D (D=>20 uM)	–	–
O=C(Nc1ccn[nH]1)c1ccc(NCC2(c3ncccc3F)CCC2)nn1 [[6-({[(3-fluoro(2-pyridyl))cyclobutyl]methyl}ami-no)pyridazin-3-yl]-N-pyrazol-5-ylcarboxamide]	–	B (B=1-10 uM)	–
OC[C@H]1CNCCN1Cc1cnc(-c2ccc(NCC3(c4ncccc4F)CCC3)nn2)s1 [[(2R)-1-({2-[6-({[(3-fluoro(2-pyridyl))cyclobutyl]methyl}ami-no)pyridazin-3-yl](1,3-thiazol-5-yl)}methyl)piperazin-2-yl]methan-1-ol]	C (C=10-20 uM)	–	–
OC[C@@H]1CNCCN1Cc1cnc(-c2ccc(NCC3(c4ncccc4F)CCC3)nn2)s1 [[(2S)-1-({2-[6-({[(3-fluoro(2-pyridyl))cyclobutyl]methyl}ami-no)pyridazin-3-yl](1,3-thiazol-5-yl)}methyl)piperazin-2-yl]methan-1-ol]	B (B=1-10 uM)	–	–
Fc1cccnc1C1(Nc2ccc(-c3ccccc3)nn2)CCC1 [[(3-fluoro(2-pyridyl))cyclobutyl](6-phenylpyridazin-3-yl)amine]	–	B (B=1-10 uM)	–
C=Cc1ccc(NC2(c3ncccc3F)CCC2)nn1 [[(3-fluoro(2-pyridyl))cyclobutyl](6-vinylpyridazin-3-yl)amine]	–	D (D=>20 uM)	–
Fc1ccc(C2(Nc3ccc(-c4ccncc4)nn3)CCC2)cc1 [[(4-fluorophenyl)cyclobutyl](6-(4-pyridyl)pyridazin-3-yl)amine]	–	B (B=1-10 uM)	–
Fc1ccc(C2(Nc3ccc(-c4cn[nH]c4)nn3)CCC2)cc1 [[(4-fluorophenyl)cyclobutyl](6-pyrazol-4-ylpyridazin-3-yl)amine]	–	B (B=1-10 uM)	–
COc1ncccc1-c1ccc(NC2(c3ccc(F)cc3)CCC2)nn1 [[(4-fluorophenyl)cyclobutyl][6-(2-methoxy(3-pyridyl))pyridazin-3-yl]amine]	–	A (A=<1 uM)	–
COc1cc(-c2ccc(NC3(c4ccc(F)cc4)CCC3)nn2)ccn1 [[(4-fluorophenyl)cyclobutyl][6-(2-methoxy(4-pyridyl))pyridazin-3-yl]amine]	–	B (B=1-10 uM)	–
Cc1cc(-c2ccc(NC3(c4ccc(F)cc4)CCC3)nn2)ccn1 [[(4-fluorophenyl)cyclobutyl][6-(2-methyl(4-pyridyl))pyridazin-3-yl]amine]	–	B (B=1-10 uM)	–
COc1cccc(-c2ccc(NC3(c4ccc(F)cc4)CCC3)nn2)n1 [[(4-fluorophenyl)cyclobutyl][6-(6-methoxy(2-pyridyl))pyridazin-3-yl]amine]	–	B (B=1-10 uM)	–
Fc1ccc(C2(Nc3ccc(-c4cccnc4OCC(F)(F)F)nn3)CCC2)cc1 [[(4-fluorophenyl)cyclobutyl]{6-[2-(2,2,2-trifluoroethoxy)(3-pyridyl)]pyridazin-3-yl}amine]	–	B (B=1-10 uM)	–
CC(C)(CNc1ccc(CNS(C)(=O)=O)nn1)c1ccc(F)cc1 [[(6-{[2-(4-fluorophenyl)-2-methylpropyl]amino}pyridazin-3-yl)methyl](methylsulfonyl)amine]	–	–	Mean AC1.4 (AC1.4 determined according to the procedure of Example 39, reported as class symbols): B (B=1-10 uM)
CC(C)[C@H](N)C(=O)N[C@H](C(=O)OCC(=O)NCc1cnc(-c2ccc(NCC3(c4ncccc4F)CCC3)nn2)s1)C(C)C [[N-({2-[6-({[(3-fluoro-2-pyridyl)cyclobutyl]methyl}ami-no)pyridazin-3-yl]-1,3-thiazol-5-yl}methyl)carbamoyl]methyl (2S)-2-((2S)-2-amino-3-methylbutanoylamino)-3-methylbutanoate]	A (A=<1 uM)	–	–
C[C@H](N)C(=O)N[C@@H](C)C(=O)OCC(=O)NCc1cnc(-c2ccc(NCC3(c4ncccc4F)CCC3)nn2)s1 [[N-({2-[6-({[(3-fluoro-2-pyridyl)cyclobutyl]methyl}ami-no)pyridazin-3-yl]-1,3-thiazol-5-yl}methyl)carbamoyl]methyl (2S)-2-((2S)-2-aminopropanoylamino)propanoate]	A (A=<1 uM)	–	–
CC(C)[C@H](N)C(=O)OCC(=O)NCc1cnc(-c2ccc(NCC3(c4ncccc4F)CCC3)nn2)s1 [[N-({2-[6-({[(3-fluoro-2-pyridyl)cyclobutyl]methyl}ami-no)pyridazin-3-yl]-1,3-thiazol-5-yl}methyl)carbamoyl]methyl (2S)-2-amino-3-methylbutanoate]	A (A=<1 uM)	–	–
C[C@H](N)C(=O)OCC(=O)NCc1cnc(-c2ccc(NCC3(c4ncccc4F)CCC3)nn2)s1 [[N-({2-[6-({[(3-fluoro-2-pyridyl)cyclobutyl]methyl}ami-no)pyridazin-3-yl]-1,3-thiazol-5-yl}methyl)carbamoyl]methyl (2S)-2-aminopropanoate]	A (A=<1 uM)	–	–
NC(=O)NCc1cnc(-c2ccc(NCC3(c4ncccc4F)CCC3)nn2)s1 [amino-N-({2-[6-({[(3-fluoro(2-pyridyl))cyclobutyl]methyl}ami-no)pyridazin-3-yl](1,3-thiazol-5-yl)}methyl)amide]	–	A (A=<1 uM)	–
